Read-outs that look alike come from different tables or passages of the source.
Tests used:
[1] = biological target: RRE RNA hairpin (internal loop IIB); assay: SPR analysis of interaction with RRE RNA hairpin; assay type: binding, HIV-1
[2] = system: HIV-1 (NL4.3-Ren); assay: microbe, parasite or virus in culture; assay type: cell-based; conditions: for EC50: read-out: EC50 (NL4.3-Ren)
[3] = system: full-length competent HIV-1 clone; assay: microbe, parasite or virus in culture; assay type: cell-based; conditions: Human immunodeficiency virus 1, MT2, 48 h, read-out: EC50 post-integration
[4] = biological target: RREc hairpin; assay: SPR binding specificity relative to control RREc hairpin; parameters: species or system HIV-1
Protocol: (§1) The interaction of these biphenyl and terphenyl compounds with the RRE RNA hairpin (SEQ. ID. No 1) was analysed using surface plasmon resonance (SPR) experiments(19). In addition to the RRE, two control RREc (SEQ. ID. No 2) and TARc (SEQ. ID. No 3) hairpins were also immobilised on the chips. In the RREc hairpin the internal loop forming the Rev high-affinity binding site is replaced with a G:G opposition, whereas in the TARc hairpin this loop is substituted with the HIV-1 Tat-binding UCU bulge(20). In this way, applicants could simultaneously assess the interaction of each ligand with RRE, RREc and TARc, obtaining important information about binding selectivity. In addition, the SPR methodology allows deduction of binding stoichiometries, which are likewise related to the specificity of the interaction between a ligand and a given RNA species. These are key considerations in the nucleic acid recognition field(4, 5, 14).
(§2) The Surface Plasmon Resonance (SPR) experiments were carried out at 25° C. with a Biacore T100 optical biosensor system, 4-channel streptavidin-derivatized Series S SA chips, and either 10 mM MES (pH 6.25), 150 mM NaCl, 1 mM EDTA and 0.005% P20 or 10 mM HEPES pH 7.4, 150 mM NaCl, 3 mM EDTA and 0.005% P20 aqueous solutions as mobile phases. After immobilizing approximately 300 response units (RU) of the RRE, RREc and TARc RNA hairpins on the chips, the compounds were injected during 10-minute periods at a flow rate of 20 μL/min and at concentrations generally ranging from 0.01 μM to 100.0 μM, and then allowed to dissociate for 10 more minutes. The RNA surfaces were regenerated with solutions containing 0.5 to 1 M NaCl and 10 to 100 mM NaOH, depending on the ligand.
(§3) RNA-ligand SPR equilibrium dissociation constants (Kd) were determined by fitting the sensorgrams to one-site or two-site equations:
(§4) [formula] [formula] where RU is the response in the steady-state region of the sensorgrams, C is the concentration of free compound in equilibrium with the complex, RUmax is the maximum response and RI is an offset term accounting for the bulk refractive index contribution of the sample. In these models, Kd, RUmax and RI are adjustable parameters, and the stoichiometry of each binding site was determined by comparing the fitted RUmax values with the predicted ones, calculated from the molecular weights of RNA and compound and the amount of RNA in the flow cell(32). The two-site equation was only utilized if it provided a clear curve-fitting improvement over the one-site model. The specificity of the RRE interaction was quantified by calculating the Kd(RREc)/Kd(RRE) and Kd(RRE)/Kd(TARc) ratios. All SPR experiments were double-referenced(33).

[5] = Cellular viability (CellTiter Glo); assay type: cell-based; conditions: human, MT-2 cells; 48 h, CellTiter Glo; read-out: CC50 (celular viability)
[6] = system: MT-2 cells; assay: Cellular viability (CellTiter Glo); assay type: cell-based
[7] = biological target: RRE-Rev34-50 interaction (RRE hairpin and frevp); assay: Fluorescence polarization displacement assay of the RRE-Rev34-50 interaction; assay type: binding, HIV-1
[8] = biological target: TARc hairpin; assay: SPR binding specificity relative to control TARc hairpin; parameters: species or system HIV-1
Protocol: as §1, §2, §3
as §4, with “The specificity of the RRE interaction was quantified by calculating the Kd(RREc)/Kd(RRE) and Kd(RRE)/Kd(TARc) ratios.” left out

[9] = system: Staphilococcus aureus (ATCC 35556); assay: Disk diffusion assay (Kirby-Bauer), S. aureus; assay type: cell-based; conditions: disk potency 20 μg, 8 mm discs, 16-18 hours at 37° C.
[10] = system: Escherichia coli (ATCC 53868); assay: Disk diffusion assay (Kirby-Bauer), E. coli; assay type: cell-based; conditions: disk potency 20 μg, 8 mm discs, 16-18 hours at 37° C.
[11] = system: RRE hairpin; assay: Two-dimensional NMR (TOCSY) titration of the RRE hairpin; assay type: binding, HIV-1; conditions: D2O, pH 6.0
[12] = system: HIV-1 LTR promoter; assay type: cell-based
[13] = system: RRE-Rev; assay: microbe, parasite or virus in culture; assay type: cell-based, HIV-1
[14] = 25° C., pH 7.4, high affinity site when two-site model, footnote d compounds: ligand range 0.1-25 μM, read-out: Kd(RRE)
[15] = Human immunodeficiency virus 1, 48 h
[16] = read-out: IC50 (RRE-Rev 50% inhibitory concentration), fluorescence polarization, 25° C., 60 nM RRE and 10 nM frevp
[17] = fluorescence anisotropy, read-out: IC50 (RRE-Rev34-50 inhibition)

Row | Structure (SMILES) | Kd [1, 14] [µM] | inhibition of HIV-1 replication (in words) [2] | EC50 [2, 15] [µM] | EC50 [3] [µM] | Kd(RREc)/Kd(RRE) ([4]; 25° C., pH 7.4) | CC50 at 48 h [5] [µM] | cellular toxicity (in words) [6] | IC50 [7, 16] [µM] | Kd(TARc)/Kd(RRE) ([8]; 25° C., pH 7.4) | disk susceptibility of S. aureus (diameter of the inhibition area) [9] | disk susceptibility of E. coli (diameter of the inhibition area) [10] | RRE interaction by NMR chemical shift perturbation (in words) [11] | inhibition of HIV-1 LTR-mediated transcription (in words) [12] | further results
1 | CCc1cc(-c2c(CCN)cc(OC)cc2CCN)cc(CC)c1-c1cc(CCN)c(OCc2ccccc2)c(CCN)c1 [IIS-771, 2,2′,2″,2′″-(4″-(benzyloxy)-3′,5′-diethyl-4-methoxy-[1,1′:4′,1″-terphenyl]-2,3″,5″,6-tetrayl)tetraethanamine] | 17.6 ± 1.8 | inhibited HIV-1 replication | 42.6 | > 100 | 1.0 | > 100 | no cellular toxicity | 77.2 ± 15.5 | 1.7 |  |  |  |  | 
2 | NC[C@@H]1O[C@H](O[C@H]2[C@@H](O)[C@H](O[C@@H]3[C@@H](O)[C@H](N)C[C@H](N)[C@H]3O[C@H]3O[C@H](CN)[C@@H](O)[C@H](O)[C@H]3N)O[C@@H]2CO)[C@H](N)[C@@H](O)[C@@H]1O [Neomycin B, neomycin B, reference compound] |  |  |  |  |  |  |  |  |  | 12.8 ± 1.9 | 15.2 ± 2.1 | unspecific |  | Kd ([1]; higher affinity site, read-out: equilibrium dissociation constant Kd (RRE)): 2.4 ± 1.1 µM; EC50 ([2]; HIV-1 infection assay, 48 h post-infection): > 100 µM; Kd(RREc)/Kd(RRE) [4]: 0.9; CC50 ([6]; 48 h, CellTiter Glo, read-out: CC50 (celular viability)): > 100 µM; Ki ([7]; calculated from IC50, assuming one ligand molecule displaces frevp, read-out: Ki inhibition constant): 2000 ± 200 nM; Kd(TARc)/Kd(RRE) [8]: 2.3
3 | COc1cc(CCN)c(-c2cc(C)c(-c3cc(CCN)c(O)c(CCN)c3)c(C)c2)c(CCN)c1 [IIS-420, 2″,3,5,6″-Tetrakis(2-aminoethyl)-4″-methoxy-2′,6′-dimethyl-(1,1′:4′,1″-terphenyl)-4-ol chlorhydrate] |  | inhibited HIV-1 replication | 3.4 | 5 |  | > 100 | no cellular toxicity |  |  |  |  | greatest RNA chemical shift variations | inhibited transcription of the reporter gene | IC50 [7, 17]: 6.8 µM; IC50 ([13]; Human immunodeficiency virus 1, read-out: IC50 (RRE-Rev), pCMV-Rev 20 ng, pDM628 500 ng/well): 10.4 ± 2.4 µM; IC50 ([13]; Human immunodeficiency virus 1, read-out: IC50 (RRE-Rev), pCMV-Rev 200 ng, pDM628 500 ng/well): 21.4 ± 6.3 µM; IC50 ([13]; Human immunodeficiency virus 1, read-out: IC50 (RRE-Rev), pCMV-Rev 500 ng, pDM628 500 ng/well): 50 to 100 µM; IC50 ([13]; Human immunodeficiency virus 1, read-out: IC50 (Rev-mediated transport of RRE-containing RNA), depends on concentration of Rev-encoding plasmid): 10.4 to 21.4 µM
4 | COc1cc(CCN)c(-c2cc(C)c(-c3cc(CCN)c(OCc4ccccc4)c(CCN)c3)c(C)c2)c(CCN)c1 [IIS-375, 2,2′,2″,2′″-[4″-(Benzyloxy)-4-methoxy-3′,5′-dimethyl-(1,1′:4′,1″-terphenyl)-2,3″,5″,6-tetrayl]tetraethanamine chlorhydrate] |  | inhibited HIV-1 replication | 24.8 | 21.4 |  | > 100 | no cellular toxicity | 32.2 ± 2.3 |  |  |  |  |  | 
5 | NCCc1cc(-c2cc(CCN)c(O)c(CCN)c2)cc(CCN)c1O [JB-391, 3,3′,5,5′-tetrakis(2-aminoethyl)-[1,1′-biphenyl]-4,4′-diol] |  |  | 50 to 100 | > 100 |  | > 100 |  |  |  | inactive | inactive | unspecific |  | IC50 [7, 17]: 7.7 µM
6 | CCc1cc(-c2c(CCN)cc(OC)cc2CCN)cc(CC)c1-c1cc(CCN)c(O)c(CCN)c1 [IIS-806, 2″,3,5,6″-Tetrakis(2-aminoethyl)-2′,6′-diethyl-4″-methoxy-(1,1′:4′,1″-terphenyl)-4-ol chlorhydrate] | 8.1 ± 1.1 | inhibited HIV-1 replication | 64.1 |  | 1.1 | > 100 | no cellular toxicity | 56.4 ± 13.5 | 1.3 |  |  | greatest RNA chemical shift variations |  | 
7 | COc1cc(CCN)c(-c2ccc(-c3cc(CCN)c(O)c(CCN)c3)c(OC)c2)c(CCN)c1 [IIS-358, 2″,3,5,6″-Tetrakis(2-aminoethyl)-2′,4″-dimethoxy-(1,1′:4′,1″-terphenyl)-4-ol chlorhydrate] |  |  | > 100 |  |  | > 100 |  | 808 ± 462 |  | inactive | inactive |  | inhibited transcription of the reporter gene | Kd ([1]; 25° C., pH 6.3, high affinity site when two-site model, JB-399 and IIS-530: ligand range 0.1-25 μM, read-out: Kd(RRE)): 13 ± 9 µM; Kd(RREc)/Kd(RRE) ([4]; 25° C., pH 6.3): 1.9; Kd(TARc)/Kd(RRE) ([8]; 25° C., pH 6.3): 6.0
8 | CCc1cc(-c2c(CCN)cc(OC)cc2CCN)ccc1-c1cc(CCN)c(OCc2ccccc2)c(CCN)c1 [IIS-758, 2,2′,2″,2′″-[4″-(Benzyloxy)-3′-ethyl-4-methoxy-(1,1′:4′,1″-terphenyl)-2,3″,5″,6-tetrayl]tetraethanamine chlorhydrate] | 16.7 ± 1.6 | inhibited HIV-1 replication | 32.3 | 17 | 1.3 | > 100 | no cellular toxicity | 78.1 ± 6.5 | 2.0 |  |  |  | inhibited transcription of the reporter gene | 

Reference: patent US9586943B2, “Bilaterally-substituted tricyclic compounds for the treatment of human immunodeficiency virus type-1 (HIV-1) infection and other diseases” (CENTRO DE INVESTIGACIÓN PRINCIPE FELIPE, priority 2013, dated 2017)
